Experiment [1] deals with T1, FAAH (Mus musculus, UniProt O08914).
T1 sequence (O08914 1-579): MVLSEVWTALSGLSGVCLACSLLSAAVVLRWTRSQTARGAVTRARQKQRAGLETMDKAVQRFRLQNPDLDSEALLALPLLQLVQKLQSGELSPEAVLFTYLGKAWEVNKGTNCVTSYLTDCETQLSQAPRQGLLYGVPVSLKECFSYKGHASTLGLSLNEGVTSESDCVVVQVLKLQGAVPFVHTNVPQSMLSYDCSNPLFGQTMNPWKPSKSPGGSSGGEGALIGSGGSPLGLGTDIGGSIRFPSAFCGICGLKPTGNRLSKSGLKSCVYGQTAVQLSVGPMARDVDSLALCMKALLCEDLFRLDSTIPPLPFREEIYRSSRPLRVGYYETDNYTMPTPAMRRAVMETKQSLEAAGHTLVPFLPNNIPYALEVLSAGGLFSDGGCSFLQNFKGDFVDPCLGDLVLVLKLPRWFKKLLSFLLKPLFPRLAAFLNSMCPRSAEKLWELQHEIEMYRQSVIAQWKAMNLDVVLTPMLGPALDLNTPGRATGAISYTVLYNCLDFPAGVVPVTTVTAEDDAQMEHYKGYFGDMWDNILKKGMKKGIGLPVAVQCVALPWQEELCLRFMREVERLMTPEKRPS
Briefly: In vitro competitive activity-based protein profiling (Table 2, % inhibition at 1 μM). The class given is biochemical. The settings on record: read-out: % Inhibition at 1 μM FAAH.

Experiment [2] deals with T2, ABHD6 (Mus musculus, UniProt Q8R2Y0).
T2 sequence (Q8R2Y0 1-336): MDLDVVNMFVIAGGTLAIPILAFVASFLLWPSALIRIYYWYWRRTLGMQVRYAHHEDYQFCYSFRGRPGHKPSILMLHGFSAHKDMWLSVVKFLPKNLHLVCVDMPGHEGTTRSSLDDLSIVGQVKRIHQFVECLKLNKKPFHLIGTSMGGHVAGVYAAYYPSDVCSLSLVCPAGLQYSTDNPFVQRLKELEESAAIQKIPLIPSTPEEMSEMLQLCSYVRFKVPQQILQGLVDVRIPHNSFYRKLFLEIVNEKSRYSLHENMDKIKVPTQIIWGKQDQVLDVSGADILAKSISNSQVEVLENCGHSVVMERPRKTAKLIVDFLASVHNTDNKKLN
Described as above. The settings on record: read-out: % Inhibition at 1 μM ABHD6. The class given is biochemical.

In the next experiment the target is T3, Mouse brain MAGL (Mus musculus, UniProt O35678).
T3 construct: from tissue; host or cells: brain of wild-type C57Bl/6J mice dosed by oral gavage
T3 sequence (O35678 1-303): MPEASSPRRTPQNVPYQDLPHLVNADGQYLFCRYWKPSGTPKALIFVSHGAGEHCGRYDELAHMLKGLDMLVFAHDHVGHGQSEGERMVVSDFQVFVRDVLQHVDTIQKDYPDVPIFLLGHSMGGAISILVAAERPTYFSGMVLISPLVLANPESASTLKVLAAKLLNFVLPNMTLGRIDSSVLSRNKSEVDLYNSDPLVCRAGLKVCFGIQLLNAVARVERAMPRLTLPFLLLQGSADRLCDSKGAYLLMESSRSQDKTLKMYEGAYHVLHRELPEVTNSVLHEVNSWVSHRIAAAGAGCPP
As to the kind of experiment: Mouse brain proteomes from inhibitor treated mice (oral gavage, ABPP analysis). The class given is in vivo. To be noted: p.o., sacrificed 4 h following administration. As to the method: After 30 min, FP—Rh (1.0 μL, 50 μM in DMSO) was added and the mixture was incubated for another 30 min at 37° C. Reactions were quenched with SDS loading buffer (50 μL-4×) and run on SDS-PAGE. Following gel imaging, serine hydrolase activity was determined by measuring fluorescent intensity of gel bands corresponding to MAGL, ABHD6 and FAAH using ImageJ 1.43 u software.
Inhibitors were administered to wild-type C57Bl/6J by oral gavage in a vehicle of polyethylene glycol. Each animal was sacrificed 4 h following administration and brain proteomes were prepared and analyzed according to previously established methods (See Niphakis, M. J., et al. (2011) ACS Chem. Neurosci. and Long, J. Z., et al. Nat. Chem. Biol. 5:37-44).

For experiment [3], the target named is T2, ABHD6. Briefly: biochemical. To be noted: in vitro competitive ABPP.
The target in experiment [4] is T4, MAGL (Mus musculus, UniProt O35678).
T4 sequence (O35678 1-303): T3 sequence (O35678 1-303)
As to the kind of experiment: In vitro competitive activity-based protein profiling (Table 2, % inhibition at 1 μM). The settings on record: read-out: % Inhibition at 1 μM MAGL. Type of experiment: biochemical. As to the method:
After 30 min, FP—Rh (1.0 μL, 50 μM in DMSO) was added and the mixture was incubated for another 30 min at 37° C. Reactions were quenched with SDS loading buffer (50 μL-4×) and run on SDS-PAGE.
Cell lysates were diluted with mock proteomes for use in competitive ABPP experiments.

For experiment [5], the target named is T4, MAGL. Briefly: biochemical. To be noted: mouse; in vitro competitive ABPP; read-out: Mouse (IC50 value, nM) MAGL.
Experiment [6] addresses T1, FAAH. As to the kind of experiment: biochemical. To be noted: in vitro competitive ABPP.

Consider `CS(=O)(=O)N1CCN(c2cc(Cl)ccc2CN2CC3CN(C(=O)OC(C(F)(F)F)C(F)(F)F)CC3C2)CC1` (centres unmarked) [Example 36, 1,1,1,3,3,3-Hexafluoropropan-2-yl 5-[[4-chloro-2-(4-methanesulfonylpiperazin-1-yl)phenyl]methyl]-octahydropyrrolo[3,4-c]pyrrole-2-carboxylate], for which the inhibition at 1 µM at FAAH [1] is < 25%; at ABHD6 [2] it was 25 to 75%; on MAGL [4] it was > 75%. The same compound came in with an inhibition at 5 mg/kg on Mouse brain MAGL of 25 to 75%. In addition, the IC50 is 100 to 1000 nM on ABHD6 [3], < 100 nM at MAGL [5] and 1000 to 10000 nM on FAAH [6].
For the compound `O=C(OC(C(F)(F)F)C(F)(F)F)N1CC2CN(Cc3cccc(C(F)(F)F)c3N3CCOCC3)CC2C1` (centres unmarked) [Example 45, 1,1,1,3,3,3-Hexafluoropropan-2-yl 5-[[2-(morpholin-4-yl)-3-(trifluoromethyl)phenyl]methyl]-octahydropyrrolo[3,4-c]pyrrole-2-carboxylate], the inhibition at 1 µM at FAAH [1] was < 25%; at ABHD6 [2], < 25%; on MAGL [4], > 75%. For the same compound, the inhibition at 5 mg/kg against Mouse brain MAGL is ≥ 75%. Also, the concentration for half-maximal inhibition (IC50) at ABHD6 [3] is 1000 to 10000 nM; at MAGL [5], < 100 nM; at FAAH [6] it was 1000 to 10000 nM.
Turning to `CCn1cc(CN2CC3CN(C(=O)OC(C(F)(F)F)C(F)(F)F)CC3C2)c(-c2ccc(N3CCCCC3)cc2)n1` (centres unmarked) [Example 133, 1,1,1,3,3,3-hexafluoropropan-2-yl 5-([1-ethyl-3-[4-(piperidin-1-yl)phenyl]-1H-pyrazol-4-yl]methyl)-octahydropyrrolo[3,4-c]pyrrole-2-carboxylate], the values for the inhibition at 1 µM at FAAH [1], at ABHD6 [2] and on MAGL [4] were < 25%, < 25% and > 75%, respectively. Further, the inhibition at 5 mg/kg against Mouse brain MAGL was ≤ 25%. Also, the figures for the IC50 on ABHD6 [3], at MAGL [5] and at FAAH [6] were 1000 to 10000 nM, < 100 nM and 1000 to 10000 nM, respectively.
Consider `CCn1ncc(CN2CC3CN(C(=O)OC(C(F)(F)F)C(F)(F)F)CC3C2)c1C(=O)NC1CC1` (centres unmarked) [Example 74], for which the inhibition at 1 µM is < 25% at FAAH [1], 25 to 75% at ABHD6 [2] and > 75% at MAGL [4]. The same compound came in with an inhibition at 5 mg/kg against Mouse brain MAGL of 25 to 75%. For the same compound, the IC50 is 100 to 1000 nM at ABHD6 [3], < 100 nM at MAGL [5] and > 10000 nM at FAAH [6].
On to `O=C(OC(C(F)(F)F)C(F)(F)F)N1CC2CN(Cc3cccc(Cl)c3N3CCC4(CCOC4)C3)CC2C1` (centres unmarked) [Example 42, 1,1,1,3,3,3-Hexafluoropropan-2-yl 5-[(3-chloro-2-[2-oxa-7-azaspiro[4.4]nonan-7-yl]phenyl)methyl]-octahydropyrrolo[3,4-c]pyrrole-2-carboxylate], for which the inhibition at 1 µM was < 25% on FAAH [1], < 25% on ABHD6 [2] and > 75% on MAGL [4]. In addition, the inhibition at 5 mg/kg against Mouse brain MAGL lay within 25 to 75%. For the same compound, the IC50 was 1000 to 10000 nM on ABHD6 [3], < 100 nM on MAGL [5] and 1000 to 10000 nM on FAAH [6].
Regarding `CC(=O)N1CC2(CCN(c3ccccc3CN3CC4CN(C(=O)OC(C(F)(F)F)C(F)(F)F)CC4C3)C2)C1` (centres unmarked) [Example 137, 1,1,1,3,3,3-hexafluoropropan-2-yl 5-[(2-[2-acetyl-2,6-diazaspiro[3.4]octan-6-yl]phenyl)methyl]-octahydropyrrolo[3,4-c]pyrrole-2-carboxylate], the inhibition at 1 µM on FAAH [1] was < 25%; on ABHD6 [2], < 25%; at MAGL [4], > 75%. Further, the inhibition at 5 mg/kg on Mouse brain MAGL was ≤ 25%. In addition, the half-maximal inhibitory concentration (IC50) at ABHD6 [3] was 1000 to 10000 nM; on MAGL [5], < 100 nM; on FAAH [6], 1000 to 10000 nM.
With `CC(C)(C)c1cc(CN2CC3CN(C(=O)OC(C(F)(F)F)C(F)(F)F)CC3C2)n(-c2ccccc2Cl)n1` (centres unmarked) [Example 170, 1,1,1,3,3,3-hexafluoropropan-2-yl 5-[[3-tert-butyl-1-(2-chlorophenyl)-1H-pyrazol-5-yl]methyl]-octahydropyrrolo[3,4-c]pyrrole-2-carboxylate], the inhibition at 1 µM was < 25% at FAAH [1], 25 to 75% on ABHD6 [2] and > 75% on MAGL [4]. For the same compound, at Mouse brain MAGL, the inhibition at 5 mg/kg lay in the range of 25 to 75%. Further, the IC50 is 1000 to 10000 nM on ABHD6 [3], < 100 nM on MAGL [5] and > 10000 nM on FAAH [6].
For the compound `CC(=O)N1CCN(c2cc(C(C)C)ccc2CN2CC3CN(C(=O)OC(C(F)(F)F)C(F)(F)F)CC3C2)CC1` (centres unmarked) [Example 24, 1,1,1,3,3,3-Hexafluoropropan-2-yl 5-[[2-(4-acetylpiperazin-1-yl)-4-(propan-2-yl)phenyl]methyl]-octahydropyrrolo[3,4-c]pyrrole-2-carboxylate], the figures for the inhibition at 1 µM at FAAH [1], on ABHD6 [2] and on MAGL [4] were < 25%, 25 to 75% and > 75%, respectively. For the same compound, on Mouse brain MAGL, the inhibition at 5 mg/kg is ≤ 25%. Moreover, the values for the half-maximal inhibitory concentration (IC50) at ABHD6 [3], on MAGL [5] and on FAAH [6] were 1000 to 10000 nM, < 100 nM and > 10000 nM, respectively.
Take `O=C(OC(C(F)(F)F)C(F)(F)F)N1CC2CN(Cc3ccc(Cl)cc3N3CCC4(CCNC4=O)CC3)CC2C1` (centres unmarked) [Example 38, 1,1,1,3,3,3-Hexafluoropropan-2-yl 5-[(4-chloro-2-[1-oxo-2,8-diazaspiro[4.5]decan-8-yl]phenyl)methyl]-octahydropyrrolo[3,4-c]pyrrole-2-carboxylate]: the inhibition at 1 µM at FAAH [1] was < 25%; on ABHD6 [2] it was < 25%; at MAGL [4], > 75%. The inhibition at 5 mg/kg against Mouse brain MAGL is ≤ 25%. Besides, the concentration for half-maximal inhibition (IC50) is 1000 to 10000 nM at ABHD6 [3], < 100 nM at MAGL [5] and > 10000 nM at FAAH [6].
In the case of `O=C(OC(C(F)(F)F)C(F)(F)F)N1CC2CN(Cc3cccc(Cl)c3N3CCC4(CCOCC4)C3)CC2C1` (centres unmarked) [Example 172, 1,1,1,3,3,3-hexafluoropropan-2-yl 5-[(3-chloro-2-[8-oxa-2-azaspiro[4.5]decan-2-yl]phenyl)methyl]-octahydropyrrolo[3,4-c]pyrrole-2-carboxylate], the inhibition at 1 µM is < 25% at FAAH [1], < 25% at ABHD6 [2] and > 75% on MAGL [4]. The inhibition at 5 mg/kg at Mouse brain MAGL was ≤ 25%. The IC50 on ABHD6 [3] was 1000 to 10000 nM; on MAGL [5] it was < 100 nM; on FAAH [6], > 10000 nM.
As for `CCn1cc(CN2CC3CN(C(=O)OC(C(F)(F)F)C(F)(F)F)CC3C2)c(-c2ccc(N3CCC3)cc2)n1` (centres unmarked) [Example 69, 1,1,1,3,3,3-Hexafluoropropan-2-yl 5-([3-[4-(azetidin-1-yl)phenyl]-1-ethyl-1H-pyrazol-4-yl]methyl)-octahydropyrrolo[3,4-c]pyrrole-2-carboxylate], the inhibition at 1 µM at FAAH [1] was < 25%; on ABHD6 [2], 25 to 75%; at MAGL [4], > 75%. For the same compound, the inhibition at 5 mg/kg on Mouse brain MAGL was ≤ 25%. Moreover, the IC50 was 1000 to 10000 nM on ABHD6 [3], < 100 nM on MAGL [5] and 1000 to 10000 nM at FAAH [6].

The term inhibition denotes how much of the control response was suppressed. Usually IC50 stands for the concentration at which inhibition is half-maximal.
